Measurements published in patent US8778964B2, “Hydroxy-substituted imidazo[1,2-a]-pyridinecarboxamides and their use” (Bayer Pharma Aktiengesellschaft, priority 2012, dated 2014).
Counter-ions that a name gives are not always drawn.

System: recombinant guanylate cyclase reporter cell line
Assay: Action on recombinant guanylate cyclase reporter cell line (MEC)
Type: cell-based
Conditions: in some cases mean values obtained from individual determinations
Protocol: B-2. Action on Recombinant Guanylate Cyclase Reporter Cell Line
The cellular action of the compounds according to the invention is determined on a recombinant guanylate cyclase reporter cell line, as described in F. Wunder et al., Anal. Biochem. 339, 104-112 (2005).
Representative values (MEC=minimal effective concentration) for the compounds according to the invention are shown in the following table (in some cases as mean values obtained from individual determinations): […]

| SMILES | minimal effective concentration [µM] |
| --- | --- |
| Cc1nc2c(OCc3c(F)cccc3F)cccn2c1C(=O)NCCCO [Example 22, 8-[(2,6-difluorobenzyl)oxy]-N-(3-hydroxy-propyl)-2-methylimidazo[1,2-a]pyridine-3-carboxamide] | 1 |
| COC(=O)[C@H](CO)NC(=O)c1c(C)nc2c(OCc3c(F)cccc3F)cccn12 [Example 164, Methyl N-({8-[(2,6-difluorobenzyl)oxy]-2-methylimidazo[1,2-a]pyridin-3-yl}carbonyl)-L-serinate] | 0.2 |
| Cc1nc2c(OCc3c(F)cccc3F)cccn2c1C(=O)N[C@H](C)CO [Example 118, 8-[(2,6-difluorobenzyl)oxy]-N-[(2R)-1-hydroxypropan-2-yl]-2-methylimidazo[1,2-a]-pyridine-3-carboxamide] | 0.3 |
| Cc1nc2c(OCc3c(F)cccc3F)cccn2c1C(=O)NC(C)C(O)C(F)(F)F (single isomer, unassigned) [Example 144, 8-[(2,6-Difluorobenzyl)oxy]-2-methyl-N-(4,4,4-trifluoro-3-hydroxybutan-2-yl)imidazo[1,2-a]-pyridine-3-carboxamide] | 0.3 |
| CCc1nc2c(OCC3CCCCC3)cccn2c1C(=O)N[C@H](C)CO [Example 55, 8-(Cyclohexylmethoxy)-2-ethyl-N-[(2R)-1-hydroxypropan-2-yl]imidazo[1,2-a]pyridine-3-carboxamide formic acid salt] | 0.1 |
| CCC(CO)NC(=O)c1c(C)nc2c(OCC3CCCCC3)cccn12 (racemic) [Example 69, (rac)-8-(cyclohexylmethoxy)-N-(1-hydroxybutan-2-yl)-2-methylimidazo[1,2-a]pyridine-3-carboxamide formate] | 0.1 |
| Cc1nc2c(OCc3ccccc3F)cccn2c1C(=O)NC(CO)CO [Example 51, N-(1,3-dihydroxypropan-2-yl)-8-[(2-fluorobenzyl)oxy]-2-methylimidazo[1,2-a]pyridine-3-carboxamide] | 5.5 |
| Cc1nc2c(OCC3CCC3)cccn2c1C(=O)NCCC1(O)CCCCC1 [Example 99, 8-(cyclobutylmethoxy)-N-[2-(1-hydroxycyclohexyl)ethyl]-2-methylimidazo[1,2-a]pyridine-3-carboxamide] | 3 |
| CCCC[C@@H](NC(=O)c1c(C)nc2c(OCc3c(F)cccc3F)cccn12)C(C)O (stereo partly drawn) [Example 140, 8-[(2,6-Difluorobenzyl)oxy]-N-[(3R)-2-hydroxyheptan-3-yl]-2-methylimidazo[1,2-a]pyridine-3-carboxamide] | 0.03 |
| CCCC[C@H](CO)NC(=O)c1c(C)nc2c(OCc3ccccc3F)cccn12 [Example 5, 8-[(2-fluorobenzyl)-oxy]-N-[(2R)-1-hydroxyhexan-2-yl]-2-methylimidazo[1,2-a]pyridine-3-carboxamide] | 0.1 |
| Cc1nc2c(OCc3c(F)cccc3F)cccn2c1C(=O)NCCCCO [Example 23, 8-[(2,6-difluorobenzyl)oxy]-N-(4-hydroxybutyl)-2-methylimidazo[1,2-a]pyridine-3-carboxamide] | 0.3 |
| Cc1nc2c(OCc3c(F)cccc3F)cccn2c1C(=O)NCC(O)C(F)(F)F (single isomer, unassigned; ent-8) [Example 109, ent-8-[(2,6-Difluorobenzyl)oxy]-2-methyl-N-(3,3,3-trifluoro-2-hydroxypropyl)imidazo[1,2-a]-pyridine-3-carboxamide] | 0.1 |
| CCCC[C@@H](NC(=O)c1c(C)nc2c(OCc3c(F)cccc3F)cccn12)C(C)O (stereo partly drawn) [Example 139, 8-[(2,6-Difluorobenzyl)oxy]-N-[(3R)-2-hydroxyheptan-3-yl]-2-methylimidazo[1,2-a]pyridine-3-carboxamide] | 0.03 |
| Cc1nc2c(OCc3c(F)cccc3F)cccn2c1C(=O)N[C@H]1CC[C@H](O)CC1 [Example 42, (rac)-8-[(2,6-difluorobenzyl)oxy]-N-(trans-4-hydroxycyclohexyl)-2-methylimidazo[1,2-a]-pyridine-3-carboxamide] | 1 |
| Cc1nc2c(OCc3ccccc3)cccn2c1C(=O)NCCC1(O)CCCC1 [Example 48, 8-(benzyloxy)-N-[2-(1-hydroxycyclopentyl)ethyl]-2-methylimidazo[1,2-a]pyridine-3-carboxamide] | 1 |
| Cc1nc2c(OCc3c(F)cccc3F)cccn2c1C(=O)N[C@@H]1CCC[C@@H]1O [Example 37, 8-[(2,6-difluorobenzyl)oxy]-N-[(1R,2S)-2-hydroxycyclopentyl]-2-methylimidazo[1,2-a]-pyridine-3-carboxamide] | 0.3 |

| SMILES | minimal effective concentration [µM] |
| --- | --- |
| Cc1nc2c(OCc3c(F)cccc3F)cccn2c1C(=O)NC(CO)c1ccc(F)cc1 (racemic) [Example 103, rac-8-[(2,6-difluorobenzyl)oxy]-N-[1-(4-fluorophenyl)-2-hydroxyethyl]-2-methylimidazo-[1,2-a]pyridine-3-carboxamide trifluoroacetate] | 0.1 |
| Cc1nc2c(OCc3c(F)cccc3F)cccn2c1C(=O)N[C@@H](CO)CC(C)C [Example 39, 8-[(2,6-Difluorobenzyl)oxy]-N-[(2R)-1-hydroxy-4-methylpentan-2-yl]-2-methylimidazo[1,2-a]-pyridine-3-carboxamide] | 0.03 |
| Cc1cccc(COc2cccn3c(C(=O)NC(CO)CO)c(C)nc23)c1Cl [Example 52, 8-[(2-chloro-3-methylbenzyl)oxy]-N-(1,3-dihydroxypropan-2-yl)-2-methylimidazo[1,2-a]-pyridine-3-carboxamide] | 10 |
| CCCC[C@H](CO)NC(=O)c1c(C)nc2c(OCc3ccccc3Cl)cccn12 [Example 4, 8-[(2-chlorobenzyl)oxy]-N-[(2R)-1-hydroxyhexan-2-yl]-2-methylimidazo[1,2-a]pyridine-3-carboxamide] | 0.1 |
| Cc1nc2c(OCC3CCCCC3)cccn2c1C(=O)NC(C)(C)C(C)O (stereo not drawn) [Example 87, 8-(cyclohexylmethoxy)-N-(3-hydroxy-2-methylbutan-2-yl)-2-methylimidazo[1,2-a]pyridine-3-carboxamide] | 1 |
| CC[C@H](CO)NC(=O)c1c(C)nc2c(OCc3c(F)cccc3F)cccn12 [Example 43, 8-[(2,6-Difluorobenzyl)oxy]-N-[(2R)-1-hydroxybutan-2-yl]-2-methylimidazo[1,2-a]pyridine-3-carboxamide] | 0.16 |
| Cc1nc2c(OCc3c(F)cccc3F)cc(Cl)cn2c1C(=O)N[C@@H](CO)CCO [Example 128, 6-chloro-8-[(2,6-difluorobenzyl)oxy]-N-[(2R)-1,4-dihydroxybutan-2-yl]-2-methylimidazo[1,2-a]pyridine-3-carboxamide] | 0.3 |
| CCCC[C@H](CO)NC(=O)c1c(C)nc2c(OCc3cccc(C(F)(F)F)c3F)cccn12 [Example 14, 8-{[2-fluoro-3-(trifluoromethyl)benzyl]oxy}-N-[(2R)-1-hydroxyhexan-2-yl]-2-methylimidazo[1,2-a]-pyridine-3-carboxamide] | 3 |
| CCCC[C@@H](NC(=O)c1c(C)nc2c(OCc3c(F)cccc3F)cccn12)C(C)(C)O [Example 147, 8-[(2,6-Difluorobenzyl)oxy]-N-[(3R)-2-hydroxy-2-methylheptan-3-yl]-2-methylimidazo[1,2-a]-pyridine-3-carboxamide] | 0.1 |
| CCCC[C@H](CO)NC(=O)c1c(C)nc2c(OCc3c(F)cccc3F)c(F)ccn12 [Example 177, 8-[(2,6-Difluorobenzyl)oxy]-7-fluoro-N-[(2R)-1-hydroxyhexan-2-yl]-2-methylimidazo[1,2-a]-pyridine-3-carboxamide] | 1 |
| Cc1nc2c(OCc3c(F)cccc3F)cccn2c1C(=O)NCC(O)C(F)(F)F (racemic) [Example 106, rac-8-[(2,6-difluorobenzyl)oxy]-2-methyl-N-(3,3,3-trifluoro-2-hydroxypropyl)imidazo[1,2-a]pyridine-3-carboxamide trifluoroacetate] | 0.3 |
| Cc1nc2c(OCc3c(F)cccc3F)cccn2c1C(=O)NC1(CO)CCC1 [Example 125, 8-[(2,6-Difluorobenzyl)oxy]-N-[1-(hydroxymethyl)cyclobutyl]-2-methylimidazo[1,2-a]pyridine-3-carboxamide] | 0.3 |
| CCCC[C@H](CO)NC(=O)c1c(C)nc2c(OCc3c(F)cccc3F)cc(Cl)cn12 [Example 131, 6-chloro-8-[(2,6-difluorobenzyl)oxy]-N-[(2R)-1-hydroxyhexan-2-yl]-2-methylimidazo[1,2-a]pyridine-3-carboxamide] | 0.01 |
| Cc1nc2c(OCc3c(F)cccc3F)cccn2c1C(=O)NC(CCC(F)(F)F)C(C)(C)O (racemic) [Example 149, rac-8-[(2,6-difluorobenzyl)oxy]-2-methyl-N-(6,6,6-trifluoro-2-hydroxy-2-methylhexan-3-yl)imidazo[1,2-a]pyridine-3-carboxamide] | 0.1 |
| Cc1nc2c(OCc3c(F)cccc3F)cccn2c1C(=O)N[C@@H]1CCC[C@H]1O [Example 36, 8-[(2,6-difluorobenzyl)oxy]-N-[(1R,2R)-2-hydroxycyclopentyl]-2-methylimidazo[1,2-a]-pyridine-3-carboxamide] | 0.1 |
| Cc1nc2c(OCc3c(F)cccc3F)cccn2c1C(=O)N[C@@H](CO)Cc1ccccc1 [Example 38, 8-[(2,6-difluorobenzyl)oxy]-N-[(2R)-1-hydroxy-3-phenylpropan-2-yl]-2-methylimidazo[1,2-a]-pyridine-3-carboxamide] | 0.3 |

Same assay, conditions: in some cases mean values obtained from individual determinations, trifluoroacetate

| SMILES | minimal effective concentration [µM] |
| --- | --- |
| Cc1nc2c(OCc3c(F)cccc3F)cccn2c1C(=O)NC(CO)CCCC(F)(F)F (racemic) [Example 102, rac-8-[(2,6-difluorobenzyl)oxy]-2-methyl-N-(6,6,6-trifluoro-1-hydroxyhexan-2-yl)-imidazo[1,2-a]pyridine-3-carboxamide trifluoroacetate] | 0.1 |
